# Assay results: US20140128380A1, “METHODS OF MODULATING THE ACTIVITY OF THE MC1 RECEPTOR AND TREATMENT OF CONDITIONS RELATED TO THIS RECEPTOR” (Mimetica Pty Ltd, priority 2009, published 2014)
# Molecular target: T1, human MC1R (hMC1R) (Homo sapiens, UniProt Q01726)
# T1 construct: purchased Perkin Elmer ES-195-M400UA
# Assay: Human MC1R radioligand binding assay (displacement of 125I-labeled NDP-MSH, Perkin Elmer hMC1R membranes)
# Conditions: displacement of [125I]NDP-MSH, compounds tested as trifluoroacetate or hydrochloride salts or free base
# Procedure: Assessments of compound binding to human MC1R (hMC1R)) by displacement of an ^125I-labeled NDP-MSH receptor ligand peptide were performed essentially as described in the data sheets produced by Perkin Elmer to accompany their frozen hMC1R membranes (Perkin Elmer catalog number ES-195-M400UA).
# [^125I] NDP-MSH: radiolabeled in house and purified by HPLC:
# Na ^125I (0.5 mCi, 17.4 Ci/mg) was added to 50 μL sodium phosphate (50 mM, pH 7.4) in an eppendorf tube precoated with IODOGEN. After incubation for 10 mins the phosphate buffer containing the iodine was added to NDP-MSH (10 ul at 1 mg/mL) in a separate eppendorf tube. This was incubated for a further 10 mins. The iodinated NDP-MSH was purified by HPLC on a Zorbax SB 300 column using solvent A: 0.05% TFA and solvent B: 90% acetonitrile 0.045% TFA with a linear gradient, 0-67% B over 60 mins.
# Perkin Elmer frozen hMC1 membranes: catalog number ES-195-M400UA, 0.4 mL/vial; 400 microassays/vial, 0.78 mg/mL protein concentration
# Vials of frozen membranes were thawed rapidly immediately before use, diluted with binding buffer and vortexed. Resuspended membranes were kept on ice until they were added to the wells of the plate.
# Assays were performed in 96 well polypropylene plates. […] This was incubated for 1 hr at 37° C.
# T1 sequence (Q01726 whole entry): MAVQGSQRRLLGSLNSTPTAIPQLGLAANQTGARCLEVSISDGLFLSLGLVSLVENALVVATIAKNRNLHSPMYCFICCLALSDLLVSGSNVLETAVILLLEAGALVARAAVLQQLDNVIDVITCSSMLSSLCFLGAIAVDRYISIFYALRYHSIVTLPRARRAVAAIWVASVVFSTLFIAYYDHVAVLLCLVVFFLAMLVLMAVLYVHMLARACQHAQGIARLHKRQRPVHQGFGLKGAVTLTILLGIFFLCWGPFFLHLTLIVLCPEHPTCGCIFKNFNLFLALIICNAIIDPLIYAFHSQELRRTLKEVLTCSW
row,IC50,SMILES
1,< 10 µM,"CC[C@H](CN1CC[C@@H](CNC(=O)c2ccc3cc(Cl)ccc3c2)N[C@@H](CCCN2CCCCC2)C1=O)c1ccccc1 [Compound 163, 6-chloro-N-(((3S,5S)-2-oxo-1-((S)-2-phenylbutyl)-3-(3-(piperidin-1-yl)propyl)-1,4-diazepan-5-yl)methyl)-2-naphthamide]"
2,< 10 µM,"CNC(=O)[C@H](Cc1ccc2ccccc2c1)N1CC[C@H](CNC(=O)[C@@H](N)Cc2ccc(Cl)cc2)N[C@@H](CCCNC(=N)N)C1=O [Compound 173, (S)-2-amino-3-(4-chlorophenyl)-N-(((3S,5R)-3-(3-guanidinopropyl)-1-((S)-1-(methylamino)-3-(naphthalen-2-yl)-1-oxopropan-2-yl)-2-oxo-1,4-diazepan-5-yl)methyl)propanamide]"
3,< 10 µM,"Cc1ccc(/C=C/C(=O)NC[C@@H]2CCN(CC(c3ccccc3)c3ccccc3)C(=O)[C@H](CCCN)N2)cc1 [Compound 120, (E)-N-(((3S,5S)-3-(3-aminopropyl)-1-(2,2-diphenylethyl)-2-oxo-1,4-diazepan-5-yl)methyl)-3-p-tolylacrylamide]"
4,< 10 µM,"CNC(=O)[C@H](Cc1ccc2ccccc2c1)N1CC[C@H]2CN(Cc3ccc(F)cc3)C(=O)N2[C@@H](CCCNC(=N)N)C1=O [Compound 142, (S)-2-((5S,9aS)-2-(4-fluorobenzyl)-5-(3-guanidinopropyl)-3,6-dioxotetrahydro-1H-imidazo[1,5-d][1,4]diazepin-7(8H,9H,9aH)-yl)-N-methyl-3-(naphthalen-2-yl)propanamide]"
5,< 10 µM,"CCC(CC)CN1CC[C@@H](CNC(=O)/C=C/c2ccc(Cl)cc2)N[C@@H](CCN)C1=O [Compound 146, (E)-N-(((3S,5S)-3-(2-aminoethyl)-1-(2-ethylbutyl)-2-oxo-1,4-diazepan-5-yl)methyl)-3-(4-chlorophenyl)acrylamide]"
6,< 10 µM,"CN(C)C(=N)NCCC[C@@H]1N[C@H](CNC(=O)c2ccc3ccccc3c2)CCN(CC(c2ccccc2)c2ccccc2)C1=O [Compound 117, N-(((3S,5S)-3-(3-(3,3-dimethylguanidino)propyl)-1-(2,2-diphenylethyl)-2-oxo-1,4-diazepan-5-yl)methyl)-2-naphthamide]"
7,< 10 µM,"O=C(/C=C/c1ccc(Cl)cc1)NC[C@@H]1CCN(CC(c2ccccc2)c2ccccc2)C(=O)[C@H](CCN2CCCCC2)N1 [Compound 101, (E)-3-(4-chlorophenyl)-N-(((3S,5S)-1-(2,2-diphenylethyl)-2-oxo-3-(2-(piperidin-1-yl)ethyl)-1,4-diazepan-5-yl)methyl)acrylamide]"
8,< 10 µM,"CNC(=O)[C@H](Cc1ccc2ccccc2c1)N1CC[C@H](CNC(=O)[C@H](N)Cc2ccc(Cl)cc2)N[C@@H](CCCNC(=N)N)C1=O [Compound 174, (R)-2-amino-3-(4-chlorophenyl)-N-(((3S,5R)-3-(3-guanidinopropyl)-1-((S)-1-(methylamino)-3-(naphthalen-2-yl)-1-oxopropan-2-yl)-2-oxo-1,4-diazepan-5-yl)methyl)propanamide]"
9,< 10 µM,"CC(=O)N[C@@H](Cc1c[nH]cn1)C(=O)N[C@@H](Cc1ccccc1)[C@@H]1CCN(CCc2c[nH]c3ccccc23)C(=O)[C@H](CCCNC(=N)N)N1 [Compound 118, (S)—N—((S)-1-((3S,5S)-1-(2-(1H-indol-3-yl)ethyl)-3-(3-guanidinopropyl)-2-oxo-1,4-diazepan-5-yl)-2-phenylethyl)-2-acetamido-3-(1H-imidazol-4-yl)propanamide]"
10,< 10 µM,"CNC(=O)[C@H](Cc1ccc2ccccc2c1)N1CC[C@H](CNC(=O)[C@@H](N)Cc2ccc(F)cc2)N[C@@H](CCCNC(=N)N)C1=O [Compound 166, (S)-2-amino-3-(4-fluorophenyl)-N-(((3S,5R)-3-(3-guanidinopropyl)-1-((S)-1-(methylamino)-3-(naphthalen-2-yl)-1-oxopropan-2-yl)-2-oxo-1,4-diazepan-5-yl)methyl)propanamide]"
11,< 10 µM,"N=C(N)NCCC[C@H]1N[C@@H](CNC(=O)c2ccc(-c3ccccc3)cc2)CCN(CC2CCCCC2)C1=O [Compound 176, N-(((3R,5R)-1-(cyclohexylmethyl)-3-(3-guanidinopropyl)-2-oxo-1,4-diazepan-5-yl)methyl)biphenyl-4-carboxamide]"
12,< 10 µM,"NC[C@@H]1N[C@H](CNC(=O)/C=C/c2ccc(Cl)cc2)CCN(CC(c2ccccc2)c2ccccc2)C1=O [Compound 133, (E)-N-(((3S,5S)-3-(aminomethyl)-1-(2,2-diphenylethyl)-2-oxo-1,4-diazepan-5-yl)methyl)-3-(4-chlorophenyl)acrylamide]"
13,< 10 µM,"O=C(NC[C@@H]1CCN(Cc2cc(Cl)cc(Cl)c2)C(=O)[C@H](CN2CCCCC2)N1)c1ccc(Cl)c(Cl)c1 [Compound 151, 3,4-dichloro-N-(((3S,5S)-1-(3,5-dichlorobenzyl)-2-oxo-3-(piperidin-1-ylmethyl)-1,4-diazepan-5-yl)methyl)benzamide]"
14,< 10 µM,NCCC[C@@H]1N[C@H](CNC(=O)c2ccc(Cl)c(Cl)c2)CCN(CC(c2ccccc2)c2ccccc2)C1=O [Compound 123]
15,< 10 µM,"CC[C@H](CN1CC[C@H](CNC(=O)c2ccc3cc(Cl)ccc3c2)N[C@H](CCN2CCCCC2)C1=O)c1ccccc1 [Compound 183, 6-chloro-N-(((3R,5R)-2-oxo-1-((S)-2-phenylbutyl)-3-(2-(piperidin-1-yl)ethyl)-1,4-diazepan-5-yl)methyl)-2-naphthamide]"
16,< 10 µM,"CC1CCC(C)N1CC[C@@H]1N[C@H](CNC(=O)/C=C/c2ccc(Cl)cc2)CCN(CC(c2ccccc2)c2ccccc2)C1=O (stereo partly drawn) [Compound 160, (E)-3-(4-chlorophenyl)-N-(((3S,5S)-3-(2-(2,5-dimethylpyrrolidin-1-yl)ethyl)-1-(2,2-diphenylethyl)-2-oxo-1,4-diazepan-5-yl)methyl)acrylamide]"
17,< 10 µM,"CCC(CN1CC[C@@H](CNC(=O)c2ccc3ccccc3c2)N[C@@H](CCN)C1=O)c1ccccc1 (mixture of isomers) [Compound 102, N-(((3S,5S)-3-(2-aminoethyl)-2-oxo-1-(2-phenylbutyl)-1,4-diazepan-5-yl)methyl)-2-naphthamide]"
18,< 10 µM,"N=C(N)NCCC[C@@H]1N[C@H](CNC(=O)c2ccc3ccccc3c2)CCN(Cc2cc(Cl)cc(Cl)c2)C1=O [Compound 100, N-(((3S,5S)-1-(3,5-dichlorobenzyl)-3-(3-guanidinopropyl)-2-oxo-1,4-diazepan-5-yl)methyl)-2-naphthamide]"
19,< 10 µM,"O=C(NC[C@@H]1CCN(CC(c2ccccc2)c2ccccc2)C(=O)[C@H](CCN2CCCCC2)N1)c1ccc(Cl)c(Cl)c1 [Compound 137, 3,4-dichloro-N-(((3S,5S)-1-(2,2-diphenylethyl)-2-oxo-3-(2-(piperidin-1-yl)ethyl)-1,4-diazepan-5-yl)methyl)benzamide]"
20,< 10 µM,"CC[C@H](CN1CC[C@H](CNC(=O)c2ccc3cc(Cl)ccc3c2)N[C@H](CC(C)(C)N2CCCCC2)C1=O)c1ccccc1 [Compound 172, 6-chloro-N-(((3R,5R)-3-(2-methyl-2-(piperidin-1-yl)propyl)-2-oxo-1-((S)-2-phenylbutyl)-1,4-diazepan-5-yl)methyl)-2-naphthamide]"
21,< 10 µM,"CC(C)(NC(=O)/C=C/c1ccc(Cl)cc1)[C@@H]1CCN(CC(c2ccccc2)c2ccccc2)C(=O)[C@H](CCN)N1 [Compound 164, (E)-N-(2-((3S,5S)-3-(2-aminoethyl)-1-(2,2-diphenylethyl)-2-oxo-1,4-diazepan-5-yl)propan-2-yl)-3-(4-chlorophenyl)acrylamide]"
22,< 10 µM,"CN(C[C@@H]1CCN(CC(c2ccccc2)c2ccccc2)C(=O)[C@H](CCCN)N1)C(=O)c1ccc2cc(Br)ccc2c1 [Compound 104, N-(((3S,5S)-3-(3-aminopropyl)-1-(2,2-diphenylethyl)-2-oxo-1,4-diazepan-5-yl)methyl)-6-bromo-N-methyl-2-naphthamide]"
23,< 10 µM,"O=C(/C=C/c1ccc(Cl)cc1)NC[C@@H]1CCN(CC(c2ccccc2)c2ccccc2)C(=O)[C@H](CCCN2CCCCC2)N1 [Compound 132, (E)-3-(4-chlorophenyl)-N-(((3S,5S)-1-(2,2-diphenylethyl)-2-oxo-3-(3-(piperidin-1-yl)propyl)-1,4-diazepan-5-yl)methyl)acrylamide]"
24,< 10 µM,"O=C(/C=C/c1ccc(F)cc1F)NC[C@@H]1CCN(CC(c2ccccc2)c2ccccc2)C(=O)[C@H](CCN2CCCCC2)N1 [Compound 158, (E)-3-(2,4-difluorophenyl)-N-(((3S,5S)-1-(2,2-diphenylethyl)-2-oxo-3-(2-(piperidin-1-yl)ethyl)-1,4-diazepan-5-yl)methyl)acrylamide]"
25,< 10 µM,"N=C(N)NCCC[C@@H]1N[C@H](CNC(=O)c2cc3ccccc3[nH]2)CCN(CC(c2ccccc2)c2ccccc2)C1=O [Compound 113, N-(((3S,5S)-1-(2,2-diphenylethyl)-3-(3-guanidinopropyl)-2-oxo-1,4-diazepan-5-yl)methyl)-1H-indole-2-carboxamide]"
26,< 10 µM,"CC(C)c1ccc(/C=C/C(=O)NC[C@@H]2CCN(CC(c3ccccc3)c3ccccc3)C(=O)[C@H](CCN)N2)cc1 [Compound 156, (E)-N-(((3S,5S)-3-(2-aminoethyl)-1-(2,2-diphenylethyl)-2-oxo-1,4-diazepan-5-yl)methyl)-3-(4-isopropylphenyl)acrylamide]"
